Patent publication US10072003B2, “Tetrahydronaphthyridine derivatives as mGluR2-negative allosteric modulators, compositions, and their use” (Merck Sharp & Dohme Corp., priority 2014, dated 2018)

molecular target: recombinant human mGluR2 (Homo sapiens (Human), UniProt Q14416); experiment: FLIPR Ca2+ mobilization antagonist assay in CHO dhfr- cells expressing human mGluR2 and Gα16; format: cell-based; conditions: antagonist response after addition of 2,500 nM glutamate, Fluo-4 AM, FLIPR384
Description: Antagonist constants are determined as follows. The compounds of the invention were tested in a fluorescence laser imaging plate reader based assay. This assay is a common functional assay to monitor Ca2+ mobilization in whole cells expressing recombinant receptor coupled with a promiscuous G-protein. CHO dhfr-cells stably expressing recombinant human mGluR2 and Gα16 loaded with Fluo-4 AM (Invitrogen, Carlsbad Calif.) were treated with various concentrations of antagonists of compounds and the Ca2+ response was monitored on a FLIPR384 (Molecular Devices, Sunnydale Calif.) for agonist activity. Then 2,500 nM glutamate was added and the antagonist response was monitored. The maximum calcium response at each concentration of compound for agonist or antagonist were plotted as dose responses and the curves were fitted with a four parameter logistic equation giving IC50 and Hill coefficient using the iterative non linear curve fitting software ADA (Merck & Co). Data in the following table represent activities in the antagonist assay.

Chain of recombinant human mGluR2 (Q14416 19-872): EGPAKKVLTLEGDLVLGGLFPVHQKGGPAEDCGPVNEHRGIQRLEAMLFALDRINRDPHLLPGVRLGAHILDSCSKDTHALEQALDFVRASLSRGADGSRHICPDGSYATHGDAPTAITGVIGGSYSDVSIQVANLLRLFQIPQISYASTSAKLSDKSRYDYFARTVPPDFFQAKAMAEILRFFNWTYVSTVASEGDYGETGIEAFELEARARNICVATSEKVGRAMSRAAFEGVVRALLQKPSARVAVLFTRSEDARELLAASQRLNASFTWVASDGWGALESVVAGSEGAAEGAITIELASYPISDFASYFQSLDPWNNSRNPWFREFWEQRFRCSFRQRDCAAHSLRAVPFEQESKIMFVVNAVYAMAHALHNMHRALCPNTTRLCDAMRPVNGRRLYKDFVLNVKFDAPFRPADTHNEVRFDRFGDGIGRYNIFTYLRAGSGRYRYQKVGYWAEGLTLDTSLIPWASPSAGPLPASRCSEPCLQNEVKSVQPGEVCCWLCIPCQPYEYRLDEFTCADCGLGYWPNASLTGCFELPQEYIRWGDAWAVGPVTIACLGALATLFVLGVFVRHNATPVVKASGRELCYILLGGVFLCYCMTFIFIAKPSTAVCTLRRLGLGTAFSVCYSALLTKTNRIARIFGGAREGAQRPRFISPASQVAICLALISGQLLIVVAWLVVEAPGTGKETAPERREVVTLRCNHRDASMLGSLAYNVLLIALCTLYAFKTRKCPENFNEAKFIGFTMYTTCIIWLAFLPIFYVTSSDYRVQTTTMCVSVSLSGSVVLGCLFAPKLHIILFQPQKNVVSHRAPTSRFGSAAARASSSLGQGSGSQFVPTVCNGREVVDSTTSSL

IC50 [nM] | SMILES
92.7 | CN1CCN(c2cc(C(N)=O)nc3c2CCN(Cc2ccnc(C(F)(F)F)c2)C3)CC1C(F)(F)F (single isomer, unassigned) [Example 5-9, (S) or (R)-4-(4-methyl-3-(trifluoromethyl)piperazin-1-yl-7-((2-(trifluoromethyl)pyridin-4-yl)methyl)-5,6,7,8-tetrahydro-1,7-naphthyridine-2-carboxamide]
37.4 | CC(c1cnnn1C)N1CCc2c(-c3ccc(F)cc3F)cc(C(N)=O)nc2C1 (single isomer, unassigned) [Example 7-1, (S) or (R)-4-(2,4-difluorophenyl)-7-(1-(1-methyl-1H-1,2,3-triazol-5-yl)ethyl)-5,6,7,8-tetrahydro-1,7-naphthyridine-2-carboxamide]
45.9 | CC(c1cnnn1C)N1CCc2c(-c3ccc(F)cc3F)cc(C(N)=O)nc2C1 (single isomer, unassigned) [Example 7-2, (R) or (S)-4-(2,4-difluorophenyl)-7-[(1R)-1-(1-methyl-1H-1,2,3-triazol-5-yl)ethyl]-5,6,7,8-tetrahydro-1,7-naphthyridine-2-carboxamide]
20.1 | CC(c1ccnn1C)N1CCc2c(-c3ccc(F)cc3F)cc(C(N)=O)nc2C1 (single isomer, unassigned) [Example 7-4, (S) or (R)-4-(2,4-difluorophenyl)-7-[(1S)-1-(1-methyl-1H-pyrazol-5-yl)ethyl]-5,6,7,8-tetrahydro-1,7-naphthyridine-2-carboxamide]
83.5 | NC(=O)c1cc(-c2ccc(F)cc2)c2c(n1)CN(CCc1cccnc1N)CC2 [Example 1-4, 7-(2-(2-aminopyridin-3-yl)ethyl)-4-(4-fluorophenyl)-5,6,7,8-tetrahydro-1,7-naphthyridine-2-carboxamide]
14.5 | Cn1nccc1CN1CCc2c(-c3ccc(F)cc3F)cc(C(N)=O)nc2C1 [Example 1-6, 4-(2,4-difluorophenyl)-7-[(1-methyl-1H-pyrazol-5-yl)methyl]-5,6,7,8-tetrahydro-1,7-naphthyridine-2-carboxamide]
13.8 | Cc1cc(CN2CCc3c(-c4ccc(F)cc4F)cc(C(N)=O)nc3C2)n(C)n1 [Example 1-7, 4-(2,4-difluorophenyl)-7-[(1,3-dimethyl-1H-pyrazol-5-yl)methyl]-5,6,7,8-tetrahydro-1,7-naphthyridine-2-carboxamide]
8.7 | Cn1nccc1CN1CCc2c(-c3ccc(Cl)cc3F)cc(C(N)=O)nc2C1 [Example 1-8, 4-(4-chloro-2-fluorophenyl)-7-[(1-methyl-1H-pyrazol-5-yl)methyl]-5,6,7,8-tetrahydro-1,7-naphthyridine-2-carboxamide]
8.2 | CC(C)n1nccc1CN1CCc2c(-c3ccc(F)cc3F)cc(C(N)=O)nc2C1 [Example 1-9, 4-(2,4-difluorophenyl)-7-{[1-(1-methylethyl)-1H-pyrazol-5-yl]methyl}-5,6,7,8-tetrahydro-1,7-naphthyridine-2-carboxamide]
21.8 | Cc1cnn(C)c1CN1CCc2c(-c3ccc(F)cc3F)cc(C(N)=O)nc2C1 [Example 1-10, 4-(2,4-difluorophenyl)-7-[(1,4-dimethyl-1H-pyrazol-5-yl)methyl]-5,6,7,8-tetrahydro-1,7-naphthyridine-2-carboxamide]
9.9 | Cc1ccc(-c2cc(C(N)=O)nc3c2CCN(Cc2ccnn2C(C)C)C3)c(F)c1 [Example 1-12, 4-(2-fluoro-4-methylphenyl)-7-{[1-(1-methylethyl)-1H-pyrazol-5-yl]methyl}-5,6,7,8-tetrahydro-1,7-naphthyridine-2-carboxamide]
84.1 | CC(C)(C)n1nccc1CN1CCc2c(-c3ccncc3)cc(C(N)=O)nc2C1 [Example 1-13, 7-[(1-tert-butyl-1H-pyrazol-5-yl)methyl]-4-pyridin-4-yl-5,6,7,8-tetrahydro-1,7-naphthyridine-2-carboxamide]
14.1 | Cn1cncc1CN1CCc2c(-c3ccc(Cl)cc3F)cc(C(N)=O)nc2C1 [Example 1-16, 4-(4-chloro-2-fluorophenyl)-7-[(1-methyl-1H-imidazol-5-yl)methyl]-5,6,7,8-tetrahydro-1,7-naphthyridine-2-carboxamide]
7.4 | CC(C)(C)n1nncc1CN1CCc2c(-c3c(F)cc(Cl)cc3F)cc(C(N)=O)nc2C1 [Example 1-17, 7-[(1-tert-butyl-1H-1,2,3-triazol-5-yl)methyl]-4-(4-chloro-2,6-difluorophenyl)-5,6,7,8-tetrahydro-1,7-naphthyridine-2-carboxamide]

Second part, the molecule before the results:

SMILES | IC50 [nM]
NC(=O)c1cc(N2CCCC(F)C2)c2c(n1)CN(Cc1ccnc(C(F)(F)F)c1)CC2 (single isomer, unassigned) [Example 5-6B, (R) or (S)-4-(3-fluoropiperidin-1-yl)-7-((2-(trifluoromethyl)pyridin-4-yl)methyl)-5,6,7,8-tetrahydro-1,7-naphthyridine-2-carboxamide] | 17.3
CC(c1ccnc(C(F)(F)F)c1)N1CCc2c(-c3cnn(C(F)F)c3)cc(C(N)=O)nc2C1 (single isomer, unassigned) [Example 7-3A, (S) or (R)-4-[1-(difluoromethyl)-1H-pyrazol-4-yl]-7-{(1R)-1-[2-(trifluoromethyl)pyridin-4-yl]ethyl}-5,6,7,8-tetrahydro-1,7-naphthyridine-2-carboxamide] | 29.3
CC(c1ccnc(C(F)(F)F)c1)N1CCc2c(-c3cnn(C(F)F)c3)cc(C(N)=O)nc2C1 (single isomer, unassigned) [Example 7-3B, (R) or (S)-4-[1-(difluoromethyl)-1H-pyrazol-4-yl]-7-{(1S)-1-[2-(trifluoromethyl)pyridin-4-yl]ethyl}-5,6,7,8-tetrahydro-1,7-naphthyridine-2-carboxamide] | 21.2
NC(=O)c1cc(-c2ccc(F)cc2F)c2c(n1)CN(CC(O)c1ccccc1)CC2 (single isomer, unassigned) [Example 8-3A, (S) or (R)-4-(2,4-difluorophenyl)-7-[(2S or 2R)-2-hydroxy-2-phenylethyl]-5,6,7,8-tetrahydro-1,7-naphthyridine-2-carboxamide] | 18.5
NC(=O)c1cc(-c2ccc(F)cc2F)c2c(n1)CN(CC(O)c1ccccc1)CC2 (single isomer, unassigned) [Example 8-3B, (R) or (S)-4-(2,4-difluorophenyl)-7-[(2R or 2S)-2-hydroxy-2-phenylethyl]-5,6,7,8-tetrahydro-1,7-naphthyridine-2-carboxamide] | 12.7
CC1(C)CC(F)(CN2CCc3c(-c4ccc(F)cc4F)cc(C(N)=O)nc3C2)CO1 (single isomer, unassigned) [Example 14-1A] | 17.4
CC1(C)CC(F)(CN2CCc3c(-c4ccc(F)cc4F)cc(C(N)=O)nc3C2)CO1 (single isomer, unassigned) [Example 14-1B] | 17.8
CC1(C)CC(O)(CN2CCc3c(-c4ccc(F)cc4F)cc(C(N)=O)nc3C2)CCO1 (single isomer, unassigned) [Example 14-2A] | 31.7
CC1(C)CC(O)(CN2CCc3c(-c4ccc(F)cc4F)cc(C(N)=O)nc3C2)CCO1 (single isomer, unassigned) [Example 14-2B] | 27.1
CC1(C)CC(O)(CN2CCc3c(-c4ccc(F)cc4F)cc(C(N)=O)nc3C2(C)C)CO1 (single isomer, unassigned) [Example 15-1A] | 24.9
CC1(C)CC(O)(CN2CCc3c(-c4ccc(F)cc4F)cc(C(N)=O)nc3C2(C)C)CO1 (single isomer, unassigned) [Example 15-1B] | 23.6
NC(=O)c1cc(-c2ccc(F)cc2)c2c(n1)CN(C[C@H]1CCN[C@@H](C(F)(F)F)C1)CC2 [Example 1-1A, 4-(4-fluorophenyl)-7-(((2R,4S)-2-(trifluoromethyl)piperidin-4-yl)methyl)-5,6,7,8-tetrahydro-1,7-naphthyridine-2-carboxamide] | 98.2
NC(=O)c1cc(-c2ccc(F)cc2)c2c(n1)CN(C[C@@H]1CCN[C@H](C(F)(F)F)C1)CC2 [Example 1-1B, 4-(4-fluorophenyl)-7-(((2S,4R)-2-(trifluoromethyl)piperidin-4-yl)methyl)-5,6,7,8-tetrahydro-1,7-naphthyridine-2-carboxamide] | 98.2
NC(=O)c1cc(-c2ccc(F)cc2)c2c(n1)CN(C[C@@H]1CCO[C@H](C3CC3)C1)CC2 [Example 1-2A, 7-(((2S,4R)-2-cyclopropyltetrahydro-2H-pyran-4-yl)methyl)-4-(4-fluorophenyl)-5,6,7,8-tetrahydro-1,7-naphthyridine-2-carboxamide] | 129
NC(=O)c1cc(-c2ccc(F)cc2)c2c(n1)CN(C[C@H]1CCO[C@@H](C3CC3)C1)CC2 [Example 1-2B, 7-(((2R,4S)-2-cyclopropyltetrahydro-2H-pyran-4-yl)methyl)-4-(4-fluorophenyl)-5,6,7,8-tetrahydro-1,7-naphthyridine-2-carboxamide] | 129
CC(C)(C)[C@@H]1C[C@H](CN2CCc3c(-c4ccc(F)cc4)cc(C(N)=O)nc3C2)CCO1 [Example 1-3A, 7-(((2S,4R)-2-(tert-butyl)tetrahydro-2H-pyran-4-yl)methyl)-4-(4-fluorophenyl)-5,6,7,8-tetrahydro-1,7-naphthyridine-2-carboxamide] | 132
CC(C)(C)[C@H]1C[C@@H](CN2CCc3c(-c4ccc(F)cc4)cc(C(N)=O)nc3C2)CCO1 [Example 1-3B, 7-(((2R,4S)-2-(tert-butyl)tetrahydro-2H-pyran-4-yl)methyl)-4-(4-fluorophenyl)-5,6,7,8-tetrahydro-1,7-naphthyridine-2-carboxamide] | 179
